Assay results published in patent US4848349A, “Substance and method for measuring hepatic blood flow” (priority 1987, dated 1989).

Assays:
Type in all cases: in vivo
[1] = Liver blood flow measurement by plasma elimination of injected FITC-GC; settings: 9 kg dog
Protocol: The use of FITC bile acid for measuring liver blood flow has been tested in a dog. The following experimental protocol was followed.
15 μmoles of FITC-labelled glycocholic bile acid (FITC-GC) in 2 ml normal saline were injected into a 9 kg dog. Serial blood samples were taken into heparinized containers at 2, 4, 6, 8, and 10 minutes following the initial injection. The samples were then centrifuged for 5 minutes and the plasma collected. The concentration of FITC-GC in each plasma sample was measured with a PERKIN-ELMERS* spectrophlourimeter, using a previously determined calibration curve for FITC-GC solutions in plasma.
Therefore plasma clearance was calculated as [formula] M-amount of material injected and k=const. (k=1 for 100% extraction, 0.9 for 90% extraction), thus [formula] where [formula] is the slope of the line for concentration vs. time plot on a semi-log paper, and Co is the initial concentration (log Co is determined as an intercept of the plot with the concentration axis). For the purpose of calculating plasma clearance, k was assumed to equal 0.9.
Liver blood flow was then calculated from the plasma clearance value using the previously determined blood hematocrit (Htc) value as follows: [formula]

rats = test: Effects on bile flow, sinusoidal blood flow, blood pressure and heart rate (rats); settings: compared with equimolar amounts of sodium glycocholate
hamsters = test: Effects on bile flow, sinusoidal blood flow, blood pressure and heart rate (hamsters); settings: compared with equimolar amounts of sodium glycocholate
[2] = Biliary excretion after intraduodenal injection (enterohepatic circulation)
Protocol: In another group of experiments, FITC-GC was injected intraduodenally and bile samples collected for a period of two hours. More than 90% of the injected conjugate was excreted in the bile. […] It is these characteristics of fluoresceintly labelled bile acids which make them valuable as diagnostic agents and research tools.

## C[C@H](CCC(=O)NCC(=O)O)[C@H]1CC[C@H]2[C@@H]3[C@H](O)C[C@@H]4C[C@H](OC(=S)Nc5ccc6c(c5)C5(OC6=O)c6ccc(O)cc6Oc6cc(O)ccc65)CC[C@]4(C)[C@H]3C[C@H](O)[C@]12C [FITC-GC, fluorescein isothiocyanate-sodium glycocholate]
[1]; 15 μmoles FITC-GC injected in 2 ml normal saline, samples at 2-10 minutes, k assumed 0.9, corrected for hematocrit
  liver blood flow: 194 mL/min
[1]; 15 μmoles injected, 2, 4, 6, 8 and 10 minutes
  concentration values in plasma serial samples (decline): monoexponential decline
rats
  effect on bile flow: the same effects
  effect on blood pressure: the same effects
  effect on heart rate: the same effects
  effect on sinusoidal blood flow: the same effects
hamsters
  effect on bile flow: the same effects
  effect on blood pressure: the same effects
  effect on heart rate: the same effects
  effect on sinusoidal blood flow: the same effects
[2]; injected intraduodenally, bile collected for two hours, read-out: injected conjugate excreted in the bile
  dose excreted at 2 h: > 90%
[2]; intraduodenal injection and reinjection of bile
  enterohepatic circulation: undergoes an enterohepatic circulation
[2]; reinjection into the duodenum of the bile collected
  elimination of the injected conjugate via bile after reinjection of collected bile: almost complete elimination
